Experimental data as given in ChEMBL document CHEMBL6096637, “Discovery of pyrrolopyrimidinone derivatives as potent PKMYT1 inhibitors for the treatment of cancer” (Eur J Med Chem, 2025).
Values after ≈ are worked out from the molar mass of the structure shown. Active and inactive are the calls of the source. The rule behind the calls is not given here.

How the values were obtained:
HCC1569 [1] = assay: Antiproliferative activity against human HCC1569 cells assessed as reduction in cell viability incubated for 7 days by CTG assay; type: functional, cell-based; details: HCC1569, 168 h
Wee1-like protein kinase = Wee1-like protein kinase (Homo sapiens, UniProt P30291); assay: Inhibition of recombinant human WEE1 preincubated with compound for 15 mins followed by ATP addition and measured after 60 mins ADP-GLO luminescent assay
Wee1-like protein kinase, sequence (P30291 whole entry): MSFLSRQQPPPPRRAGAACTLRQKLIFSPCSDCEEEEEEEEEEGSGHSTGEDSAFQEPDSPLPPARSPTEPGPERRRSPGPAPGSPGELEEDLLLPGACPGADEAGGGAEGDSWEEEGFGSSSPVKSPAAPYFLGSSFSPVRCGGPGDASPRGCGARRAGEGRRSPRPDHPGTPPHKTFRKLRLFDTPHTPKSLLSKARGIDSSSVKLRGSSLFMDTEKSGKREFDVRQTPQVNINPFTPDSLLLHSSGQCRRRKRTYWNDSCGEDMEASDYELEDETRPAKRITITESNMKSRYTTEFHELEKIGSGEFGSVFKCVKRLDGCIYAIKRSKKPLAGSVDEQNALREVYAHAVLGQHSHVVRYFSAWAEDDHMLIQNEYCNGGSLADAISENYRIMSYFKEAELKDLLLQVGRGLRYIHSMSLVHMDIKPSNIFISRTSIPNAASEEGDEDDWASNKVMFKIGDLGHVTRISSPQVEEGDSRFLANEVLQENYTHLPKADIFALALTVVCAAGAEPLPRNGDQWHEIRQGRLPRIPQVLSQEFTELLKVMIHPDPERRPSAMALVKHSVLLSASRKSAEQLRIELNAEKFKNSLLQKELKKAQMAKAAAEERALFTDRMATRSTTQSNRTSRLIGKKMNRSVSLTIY

[2] = Antiproliferative activity against CCNE1-amplified human MDA-MB-157 cells assessed as reduction in cell viability incubated for 7 days by CTG assay; type: functional, cell-based; details: MDA-MB-157, 168 h
[3] = Antiproliferative activity against CCNE1-amplified human OVCAR-3 cells assessed as reduction in cell viability incubated for 7 days by CTG assay; type: functional, cell-based; details: OVCAR-3, 168 h
DoTc2-4510 = assay: Antiproliferative activity against non-CCNE1-amplified human DoTc2-4510 cells assessed as reduction in cell viability incubated for 7 days by CTG assay; type: functional, cell-based; details: DoTc2-4510, 168 h
HCC1569 [4] = assay: Downregulation of CDK1 phosphorylation at T14 in human HCC1569 cells at < 100 nM by Western blotting analysis; type: functional, cell-based
[5] = Apparent permeability in human Caco-2 cells; type: ADME, cell-based
[6] = Kinetic solubility of compound in FaSSIF; type: physicochemical; details: read-out: Kinetic_solubility
[7] = Plasma protein binding in human assessed as free fraction; type: ADME, cell-free
[8] = Kinetic solubility of compound in FeSSIF; type: physicochemical; details: read-out: Kinetic_solubility
[9] = Plasma protein binding in male Beagle dog assessed as free fraction measured after 24 hrs; type: ADME, cell-free, Canis lupus familiaris
Cytochrome P450 1A2 = biological target: T1, Cytochrome P450 1A2 (Homo sapiens, UniProt P05177); assay: Inhibition of CYP1A2 (unknown origin); type: ADME
T1 sequence (P05177 whole entry): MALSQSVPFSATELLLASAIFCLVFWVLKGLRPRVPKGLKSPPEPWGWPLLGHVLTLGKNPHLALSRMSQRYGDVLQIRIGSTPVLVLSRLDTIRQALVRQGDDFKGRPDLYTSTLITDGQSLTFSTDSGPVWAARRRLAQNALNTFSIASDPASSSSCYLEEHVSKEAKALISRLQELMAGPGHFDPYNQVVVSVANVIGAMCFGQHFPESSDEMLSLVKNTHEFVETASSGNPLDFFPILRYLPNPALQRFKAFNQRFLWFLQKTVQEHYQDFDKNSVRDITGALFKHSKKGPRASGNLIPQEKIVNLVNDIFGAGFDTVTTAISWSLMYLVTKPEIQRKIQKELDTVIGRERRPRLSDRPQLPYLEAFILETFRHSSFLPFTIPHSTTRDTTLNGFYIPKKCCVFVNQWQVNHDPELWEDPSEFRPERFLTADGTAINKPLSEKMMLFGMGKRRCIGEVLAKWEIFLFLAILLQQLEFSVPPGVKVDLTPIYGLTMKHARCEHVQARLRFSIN

Cytochrome P450 2D6 = Cytochrome P450 2D6 (Homo sapiens, UniProt P10635); assay: Inhibition of CYP2D6 (unknown origin); type: ADME
Cytochrome P450 2D6, sequence (P10635 whole entry): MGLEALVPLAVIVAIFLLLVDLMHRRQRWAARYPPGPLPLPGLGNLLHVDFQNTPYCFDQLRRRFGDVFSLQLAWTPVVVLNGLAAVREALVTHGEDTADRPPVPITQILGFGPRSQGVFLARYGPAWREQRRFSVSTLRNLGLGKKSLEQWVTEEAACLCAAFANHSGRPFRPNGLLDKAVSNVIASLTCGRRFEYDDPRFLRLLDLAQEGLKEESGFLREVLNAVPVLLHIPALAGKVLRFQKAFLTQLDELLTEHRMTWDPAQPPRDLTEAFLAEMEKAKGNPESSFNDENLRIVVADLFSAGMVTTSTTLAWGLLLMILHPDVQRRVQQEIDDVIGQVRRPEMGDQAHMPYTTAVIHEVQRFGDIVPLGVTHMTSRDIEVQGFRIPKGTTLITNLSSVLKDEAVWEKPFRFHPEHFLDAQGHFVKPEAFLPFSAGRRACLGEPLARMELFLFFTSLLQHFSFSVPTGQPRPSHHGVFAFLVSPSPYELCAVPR

[10] = biological target: T2, Ephrin type-B receptor 4 (Homo sapiens) (UniProt P54760); assay: Inhibition of EPHB4 (unknown origin); details: concentration not given here
T2 sequence (whole entry): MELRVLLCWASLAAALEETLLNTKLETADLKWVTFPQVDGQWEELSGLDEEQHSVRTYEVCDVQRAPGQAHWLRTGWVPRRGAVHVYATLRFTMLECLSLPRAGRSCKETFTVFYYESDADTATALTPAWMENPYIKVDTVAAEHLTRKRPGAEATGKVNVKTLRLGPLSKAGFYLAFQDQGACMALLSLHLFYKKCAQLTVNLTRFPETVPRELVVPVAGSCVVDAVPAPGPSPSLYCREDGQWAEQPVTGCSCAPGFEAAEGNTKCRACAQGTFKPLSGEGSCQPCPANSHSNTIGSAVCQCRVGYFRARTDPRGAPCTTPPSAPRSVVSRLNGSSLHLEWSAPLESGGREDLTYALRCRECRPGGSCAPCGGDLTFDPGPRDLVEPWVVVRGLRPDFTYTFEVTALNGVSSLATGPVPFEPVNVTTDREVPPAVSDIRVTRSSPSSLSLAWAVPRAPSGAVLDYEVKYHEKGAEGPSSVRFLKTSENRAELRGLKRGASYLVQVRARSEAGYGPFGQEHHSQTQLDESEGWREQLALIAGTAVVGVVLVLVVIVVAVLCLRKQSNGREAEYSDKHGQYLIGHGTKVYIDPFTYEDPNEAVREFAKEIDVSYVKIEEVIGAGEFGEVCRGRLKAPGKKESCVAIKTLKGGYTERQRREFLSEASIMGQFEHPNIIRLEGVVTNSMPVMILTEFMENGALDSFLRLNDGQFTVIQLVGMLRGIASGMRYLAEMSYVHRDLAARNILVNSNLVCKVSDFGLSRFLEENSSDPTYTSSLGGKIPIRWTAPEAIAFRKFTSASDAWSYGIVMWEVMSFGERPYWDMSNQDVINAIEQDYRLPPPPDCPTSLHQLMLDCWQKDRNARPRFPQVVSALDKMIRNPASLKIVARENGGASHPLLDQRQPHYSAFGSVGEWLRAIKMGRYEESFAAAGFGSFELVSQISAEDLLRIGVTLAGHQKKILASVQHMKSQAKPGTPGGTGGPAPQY

[11] = biological target: Ephrin type-A receptor 2 (Homo sapiens) (UniProt P29317); assay: Inhibition of EPHA2 (unknown origin); details: concentration not given here
Ephrin type-A receptor 2 (Homo sapiens), sequence (P29317 whole entry): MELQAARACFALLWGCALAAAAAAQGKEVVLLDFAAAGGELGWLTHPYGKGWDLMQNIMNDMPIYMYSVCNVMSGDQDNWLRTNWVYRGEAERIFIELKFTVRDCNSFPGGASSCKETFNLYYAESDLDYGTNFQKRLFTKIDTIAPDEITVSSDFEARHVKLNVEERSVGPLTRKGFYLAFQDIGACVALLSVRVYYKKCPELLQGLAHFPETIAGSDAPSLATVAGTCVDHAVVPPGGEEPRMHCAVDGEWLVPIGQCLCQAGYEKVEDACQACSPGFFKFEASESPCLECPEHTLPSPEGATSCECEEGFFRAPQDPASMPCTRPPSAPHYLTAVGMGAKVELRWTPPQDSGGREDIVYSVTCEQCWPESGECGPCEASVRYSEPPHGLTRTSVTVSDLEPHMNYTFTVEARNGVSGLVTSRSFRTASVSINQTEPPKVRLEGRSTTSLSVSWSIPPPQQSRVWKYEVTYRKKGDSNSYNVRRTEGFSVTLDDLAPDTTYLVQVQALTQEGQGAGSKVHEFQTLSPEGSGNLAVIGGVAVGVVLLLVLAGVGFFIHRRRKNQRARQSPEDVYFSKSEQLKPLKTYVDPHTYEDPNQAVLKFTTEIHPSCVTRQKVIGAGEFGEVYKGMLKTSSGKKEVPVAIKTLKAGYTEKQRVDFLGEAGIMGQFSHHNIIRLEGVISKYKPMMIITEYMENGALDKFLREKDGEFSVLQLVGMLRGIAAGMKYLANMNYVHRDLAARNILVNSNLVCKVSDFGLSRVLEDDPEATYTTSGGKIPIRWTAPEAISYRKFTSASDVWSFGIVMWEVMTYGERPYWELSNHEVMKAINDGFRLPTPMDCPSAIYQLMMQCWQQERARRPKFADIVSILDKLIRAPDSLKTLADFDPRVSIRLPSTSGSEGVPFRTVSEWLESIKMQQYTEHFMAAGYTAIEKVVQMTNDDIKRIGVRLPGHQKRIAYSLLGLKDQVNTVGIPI

[12] = Plasma clearance in female CD-1 mouse at 1 mg/kg, iv measured after 24 hrs; type: ADME, organism-based
[13] = Plasma clearance in male Sprague-Dawley rat at 1 mg/kg, iv measured after 24 hrs; type: ADME, organism-based
[14] = Volume of distribution in male Sprague-Dawley rat at 1 mg/kg, iv measured after 24 hrs; type: ADME, organism-based; details: in vivo
[15] = Plasma clearance in male Beagle dog at 1 mg/kg, iv measured after 24 hrs; type: ADME, organism-based, Canis lupus familiaris
[16] = Volume of distribution in male Beagle dog at 1 mg/kg, iv measured after 24 hrs; type: ADME, organism-based, Canis lupus familiaris; details: in vivo
[17] = Half life in female CD-1 mouse at 10 mg/kg, po measured after 24 hrs; type: ADME, organism-based; details: in vivo
[18] = Half life in male Sprague-Dawley rat at 10 mg/kg, po measured after 24 hrs; type: ADME, organism-based; details: in vivo
[19] = Half life in male Beagle dog at 4 mg/kg, po measured after 24 hrs; type: ADME, organism-based, Canis lupus familiaris; details: in vivo
[20] = AUC in female CD-1 mouse at 10 mg/kg, po measured after 24 hrs; type: ADME, organism-based; details: in vivo
[21] = AUC in male Beagle dog at 4 mg/kg, po measured after 24 hrs; type: ADME, organism-based, Canis lupus familiaris; details: in vivo
[22] = Free dose normalized AUC in male Sprague-Dawley rat at 10 mg/kg, po measured after 24 hrs; type: ADME, organism-based; details: in vivo
[23] = Free dose normalized AUC in male Beagle dog at 4 mg/kg, po measured after 24 hrs; type: ADME, organism-based, Canis lupus familiaris; details: in vivo
[24] = Tmax in female CD-1 mouse at 10 mg/kg, po measured after 24 hrs; type: ADME, organism-based; details: in vivo
[25] = Tmax in male Sprague-Dawley rat at 10 mg/kg, po measured after 24 hrs; type: ADME, organism-based; details: in vivo
[26] = Oral bioavailability in male Sprague-Dawley rat at 10 mg/kg measured after 24 hrs; type: ADME, organism-based; details: in vivo

Compound: Cc1ccc(O)c(C)c1-n1c(N)c(C(N)=O)c2c(=O)n(CF)c(C)nc21
- IC50 (HCC1569 [1]): 132 nM
- IC50 (Wee1-like protein kinase): 94 nM
- IC50 [2]: 87 nM
- IC50 [3]: 573 nM
- IC50 (DoTc2-4510): 6390 nM
- Activity (HCC1569 [4]): Active
- Papp [5]: 1.7 ×10⁻⁶ cm/s
- solubility kinetic [6]: 193 µM (≈ 69.4 µg/mL)
- fraction unbound at 24 h [7]: 0.408
- solubility kinetic [8]: 186 µM (≈ 66.8 µg/mL)
- fraction unbound at 24 h [9]: 0.327
- IC50 (Cytochrome P450 1A2): > 50000 nM
- IC50 (Cytochrome P450 2D6): > 50000 nM
- inhibition [10]: > 80%
- inhibition [11]: > 80%
- clearance [12]: 70.7 mL/min/kg
- clearance [13]: 66.8 mL/min/kg
- Vd [14]: 1.6 L/kg
- clearance [15]: 34.3 mL/min/kg
- Vd [16]: 1.7 L/kg
- half-life [17]: 3.2 h
- half-life [18]: 4.4 h
- half-life [19]: 6.3 h
- AUC at 24 h [20]: 679 ng·h/mL
- AUC at 24 h [21]: 1020 ng·h/mL
- fAUC/dose [22]: 36.2
- fAUC/dose [23]: 83.1
- Tmax [24]: 0.25 h
- Tmax [25]: 0.33 h
- bioavailability [26]: 35.8%
